Data: patent US20210087620A1, “Target Gene Identifying Method for Tumor Treatment” (Samsung Life Public Welfare Foundation Samsung Life Public …, priority 2017, published 2021)

Key:
[1] = tested on: left tumor-derived cells of the GBM9 patient; assay: PDC-based chemical screening (ATP cell viability, dose-response AUC), left tumor; parameters: species or system human; conditions: GBM9 left tumor PDCs
Description: (§1) According to one embodiment, the measuring of drug sensitivity of each sample by subjecting the multiple samples to drug screening may include obtaining a cell viability curve of each sample according to a dose of each drug; and calculating an area under the curve.
(§2) GBM9 patient had tumors in the right and left frontal lobes of the brain, respectively. In this regard, 40 kinds of anticancer agents were administered to samples collected from the respective tumors, and tumor cell viability was examined.
(§3) When a curve of tumor cell viability vs drug dose is plotted, an area under the curve (AUC) may be used as an index of drug sensitivity. […]
(§4) PDCs grown in serum-free medium were seeded in 384 well plates at a density of 500 cells per well in duplicate or triplicate. […] After 6 days of incubation at 37° C. in a 5% CO2 humidified incubator, cell viability was analyzed using an adenosine triphosphate (ATP) monitoring system based on firefly luciferase (ATPLite™ 1step, PerkinElmer). At this time, viable cells were estimated using an EnVision Multilabel Reader (PerkinElmer). […] DRC fitting was performed using GraphPad Prism 5 (GraphPad) and evaluated by measuring an area under the curve (AUC) of dose response curve. After normalization, best-fit lines were determined and the AUC value of each curve was calculated using a GraphPad Prism. […]

[2] = tested on: right tumor-derived cells of the GBM9 patient; assay: PDC-based chemical screening (ATP cell viability, dose-response AUC), right tumor; parameters: species or system human; conditions: GBM9 right tumor PDCs
Description: as §1, §2, §3, §4

[3] = 6 days, 20 μM to 4.88 nM, FIG. 6

SMILES: Nc1cc(C(F)(F)F)c(-c2cc(N3CCOCC3)nc(N3CCOCC3)n2)cn1 [BKM120, Buparlisib]
- survival rate of tumor cells with increasing drug dose [1, 3]: survival rates of the two tumors decreased
- area under the curve (AUC) of cell viability vs dose (low AUC = high drug sensitivity) ([1]; FIG. 6, FIG. 7): relatively low
- survival rate of tumor cells with increasing drug dose [2, 3]: survival rates of the two tumors decreased
- area under the curve (AUC) of cell viability vs dose (low AUC = high drug sensitivity) ([2]; FIG. 6, FIG. 7): relatively low
